Test results published in patent publication US9340590B2 (priority 2011, dated 2016).
Like-named read-outs stand apart in the source and are kept apart here. Positions of bridges follow the written chain, without caps; N, C: chain ends. Non-standard residues stand in square brackets, D forms with d. Residues, ends and D or L forms follow the SMILES beside them. 1Nal = N[C@@H](Cc1cccc2ccccc12)C(=O)O; Cha = N[C@@H](CC1CCCCC1)C(=O)O; NMeV = CN[C@H](C(=O)O)C(C)C

How the values were obtained:
Assay in all cases: cell-based
hNav1.3 = hNav1.3 (Homo sapiens, UniProt Q9NY46); conditions: IonWorks Quattro, read-out: IWQ Use Nav1.3
hNav1.3, sequence (Q9NY46 whole entry, looked up): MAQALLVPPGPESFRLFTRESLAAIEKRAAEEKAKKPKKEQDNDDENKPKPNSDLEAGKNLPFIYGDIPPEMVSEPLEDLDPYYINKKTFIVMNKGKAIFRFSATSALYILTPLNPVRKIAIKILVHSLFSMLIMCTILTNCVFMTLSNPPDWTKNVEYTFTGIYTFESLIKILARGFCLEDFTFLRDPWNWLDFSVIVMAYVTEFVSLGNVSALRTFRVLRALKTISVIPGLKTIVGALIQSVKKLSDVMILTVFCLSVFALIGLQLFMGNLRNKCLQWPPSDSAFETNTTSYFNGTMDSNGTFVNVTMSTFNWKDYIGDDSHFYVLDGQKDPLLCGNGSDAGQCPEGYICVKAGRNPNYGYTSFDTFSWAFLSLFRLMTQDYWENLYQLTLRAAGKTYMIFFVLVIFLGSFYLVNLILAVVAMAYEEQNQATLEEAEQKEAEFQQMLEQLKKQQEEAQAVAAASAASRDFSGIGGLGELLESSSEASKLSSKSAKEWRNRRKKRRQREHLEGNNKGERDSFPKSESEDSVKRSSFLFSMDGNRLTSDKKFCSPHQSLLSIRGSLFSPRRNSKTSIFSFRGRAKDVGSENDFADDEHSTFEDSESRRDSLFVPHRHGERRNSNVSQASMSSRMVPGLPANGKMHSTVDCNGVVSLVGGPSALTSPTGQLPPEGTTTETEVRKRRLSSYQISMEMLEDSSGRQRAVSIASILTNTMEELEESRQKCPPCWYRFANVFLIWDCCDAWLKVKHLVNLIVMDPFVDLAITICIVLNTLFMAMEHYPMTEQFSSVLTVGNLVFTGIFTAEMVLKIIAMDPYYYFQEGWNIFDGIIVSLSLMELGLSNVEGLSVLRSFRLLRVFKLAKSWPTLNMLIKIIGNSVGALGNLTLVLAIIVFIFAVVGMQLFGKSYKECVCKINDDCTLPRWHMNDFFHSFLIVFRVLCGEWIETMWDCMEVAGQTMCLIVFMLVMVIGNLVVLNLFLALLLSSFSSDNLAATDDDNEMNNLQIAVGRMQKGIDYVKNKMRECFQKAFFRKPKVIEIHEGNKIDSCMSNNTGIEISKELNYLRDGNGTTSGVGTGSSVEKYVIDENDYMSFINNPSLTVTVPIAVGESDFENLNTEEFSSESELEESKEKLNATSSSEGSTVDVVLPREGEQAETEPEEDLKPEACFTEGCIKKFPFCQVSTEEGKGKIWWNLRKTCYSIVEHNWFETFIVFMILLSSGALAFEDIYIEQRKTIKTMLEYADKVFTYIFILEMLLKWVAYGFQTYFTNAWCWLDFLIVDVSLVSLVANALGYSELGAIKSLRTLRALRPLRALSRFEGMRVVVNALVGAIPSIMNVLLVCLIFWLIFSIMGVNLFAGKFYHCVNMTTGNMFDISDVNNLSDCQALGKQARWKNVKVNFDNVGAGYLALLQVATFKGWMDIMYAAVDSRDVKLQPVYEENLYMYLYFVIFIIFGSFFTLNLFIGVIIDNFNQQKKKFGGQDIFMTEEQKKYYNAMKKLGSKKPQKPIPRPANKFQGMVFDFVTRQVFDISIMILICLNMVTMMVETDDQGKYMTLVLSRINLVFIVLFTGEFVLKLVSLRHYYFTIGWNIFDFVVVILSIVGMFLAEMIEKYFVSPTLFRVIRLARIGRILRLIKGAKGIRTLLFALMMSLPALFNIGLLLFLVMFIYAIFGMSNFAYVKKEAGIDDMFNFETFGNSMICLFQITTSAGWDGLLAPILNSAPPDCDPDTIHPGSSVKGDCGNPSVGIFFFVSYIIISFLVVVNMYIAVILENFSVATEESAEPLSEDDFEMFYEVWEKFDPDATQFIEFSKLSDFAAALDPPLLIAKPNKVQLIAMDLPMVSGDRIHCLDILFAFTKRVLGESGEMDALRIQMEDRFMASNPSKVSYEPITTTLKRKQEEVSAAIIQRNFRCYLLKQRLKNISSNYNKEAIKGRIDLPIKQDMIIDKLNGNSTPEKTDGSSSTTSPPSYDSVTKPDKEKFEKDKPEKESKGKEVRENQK

hNav1.5 = hNav1.5 (Homo sapiens, UniProt Q14524)
hNav1.7 = hNav1.7 (Homo sapiens, UniProt Q15858); type: cell-based
hNav1.7, sequence (Q15858 whole entry, looked up): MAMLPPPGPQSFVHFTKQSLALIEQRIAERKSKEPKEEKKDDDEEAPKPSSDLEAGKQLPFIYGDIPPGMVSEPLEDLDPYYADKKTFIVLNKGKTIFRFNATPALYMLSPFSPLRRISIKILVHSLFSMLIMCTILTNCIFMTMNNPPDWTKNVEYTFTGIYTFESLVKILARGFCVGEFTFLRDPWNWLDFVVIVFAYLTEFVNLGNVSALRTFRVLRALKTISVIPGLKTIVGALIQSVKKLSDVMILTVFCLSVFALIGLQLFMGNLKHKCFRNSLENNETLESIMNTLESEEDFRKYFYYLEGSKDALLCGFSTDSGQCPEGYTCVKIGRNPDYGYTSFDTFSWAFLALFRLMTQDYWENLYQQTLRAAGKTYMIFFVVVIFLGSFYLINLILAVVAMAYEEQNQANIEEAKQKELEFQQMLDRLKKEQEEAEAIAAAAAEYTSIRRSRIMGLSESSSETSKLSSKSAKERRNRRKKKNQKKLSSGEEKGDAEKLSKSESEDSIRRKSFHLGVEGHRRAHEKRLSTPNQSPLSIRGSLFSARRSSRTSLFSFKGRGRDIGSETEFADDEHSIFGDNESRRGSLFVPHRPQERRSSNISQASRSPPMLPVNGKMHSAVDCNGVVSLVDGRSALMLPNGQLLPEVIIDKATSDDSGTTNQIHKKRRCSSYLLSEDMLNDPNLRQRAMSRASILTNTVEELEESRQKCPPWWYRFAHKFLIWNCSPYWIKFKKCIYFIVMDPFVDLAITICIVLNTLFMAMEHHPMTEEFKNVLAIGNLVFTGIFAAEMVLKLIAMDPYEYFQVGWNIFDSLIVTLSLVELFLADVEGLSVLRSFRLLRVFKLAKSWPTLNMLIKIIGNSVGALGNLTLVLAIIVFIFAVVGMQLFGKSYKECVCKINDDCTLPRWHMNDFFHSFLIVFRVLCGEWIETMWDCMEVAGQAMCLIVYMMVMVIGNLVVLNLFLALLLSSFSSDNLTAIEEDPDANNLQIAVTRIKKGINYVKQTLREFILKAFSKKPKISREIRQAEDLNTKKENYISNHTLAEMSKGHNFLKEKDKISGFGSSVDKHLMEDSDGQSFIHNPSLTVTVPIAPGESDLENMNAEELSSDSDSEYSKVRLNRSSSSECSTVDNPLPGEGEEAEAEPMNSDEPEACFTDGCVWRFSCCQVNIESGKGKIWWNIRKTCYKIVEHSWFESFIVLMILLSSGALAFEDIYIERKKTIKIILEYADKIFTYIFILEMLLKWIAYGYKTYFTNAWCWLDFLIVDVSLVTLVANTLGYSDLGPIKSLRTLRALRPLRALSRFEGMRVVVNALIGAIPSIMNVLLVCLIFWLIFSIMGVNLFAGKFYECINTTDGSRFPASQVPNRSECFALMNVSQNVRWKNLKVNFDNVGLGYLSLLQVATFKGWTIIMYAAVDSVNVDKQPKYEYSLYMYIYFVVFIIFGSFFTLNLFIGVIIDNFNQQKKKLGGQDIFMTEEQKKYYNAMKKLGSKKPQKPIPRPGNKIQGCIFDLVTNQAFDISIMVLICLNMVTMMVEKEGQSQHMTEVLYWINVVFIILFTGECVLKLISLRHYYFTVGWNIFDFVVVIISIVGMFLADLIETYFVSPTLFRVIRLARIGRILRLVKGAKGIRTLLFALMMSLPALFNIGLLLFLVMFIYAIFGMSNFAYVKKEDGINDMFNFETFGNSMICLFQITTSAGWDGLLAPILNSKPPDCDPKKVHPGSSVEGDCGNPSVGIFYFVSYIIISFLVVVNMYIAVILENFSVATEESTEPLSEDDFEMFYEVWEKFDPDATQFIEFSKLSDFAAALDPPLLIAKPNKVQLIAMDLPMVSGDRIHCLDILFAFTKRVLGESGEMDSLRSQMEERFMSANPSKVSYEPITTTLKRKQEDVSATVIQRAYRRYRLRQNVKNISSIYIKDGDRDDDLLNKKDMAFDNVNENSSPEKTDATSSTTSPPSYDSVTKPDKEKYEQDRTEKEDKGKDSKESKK

[1] = use-dependent protocol, hNav1.3
[2] = IonWorks Quattro, use-dependent protocol, hNav1.5, read-out: IWQ Use Nav1.5
[3] = IonWorks Quattro, use-dependent protocol, hNav1.7, read-out: IWQ Use Nav1.7
[4] = IonWorks Quattro, use-dependent block, hNav1.5, read-out: IWQ Use Nav1.5
[5] = IonWorks Quattro, use-dependent block, hNav1.7, read-out: IWQ Use Nav1.7

In the case of `CC[C@H](C)[C@@H]1NC(=O)[C@@H]2CSSC[C@@H]3NC(=O)[C@H](C(C)C)NC(=O)[C@H](CC(C)C)NC(=O)[C@H](CC(N)=O)NC(=O)[C@@H]4CCCN4C(=O)[C@H](CCCNC(=N)N)NC(=O)[C@H](CSSC[C@H](NC(=O)[C@@H](N)CC(=O)O)C(=O)N[C@@H](CC(C)C)C(=O)NCC(=O)N(C)[C@@H](C(C)C)C(=O)N[C@@H](Cc4ccccc4)C(=O)N[C@@H](CCCNC(=N)N)C(=O)N[C@@H](CCCCN)C(=O)N2)NC(=O)[C@H](CSSC[C@@H](C(=O)N[C@@H](CCCCN)C(=O)N[C@@H](Cc2ccc(O)cc2)C(=O)N[C@H](C(=O)N[C@@H](Cc2ccccc2)C(N)=O)C(C)C)NC(=O)[C@H](Cc2c[nH]c4ccccc24)NC(=O)[C@H](CCCCN)NC(=O)[C@H](Cc2c[nH]cn2)NC(=O)[C@H]([C@@H](C)O)NC(=O)[C@H](CCCNC(=N)N)NC(=O)[C@H](CO)NC3=O)NC(=O)[C@H](CCCCN)NC(=O)[C@H](CC(=O)O)NC(=O)[C@H](CC(N)=O)NC(=O)[C@H](CC(=O)O)NC(=O)[C@@H]2CCCN2C1=O` [compound 627] (H-DCLG[NMeV]FRKCIPDNDKCCRPNLVCSRTHKWCKYVF-NH2; disulfide 2-17, 9-23, 16-30), the IC50 (hNav1.3; [1]) is reported as 250 nM, the IC50 (hNav1.5; [2]) is reported as 6 µM and the IC50 (hNav1.7; [3]) is reported as 190 nM.

With `CC[C@H](C)[C@@H]1NC(=O)[C@@H]2CSSC[C@@H]3NC(=O)[C@H](C(C)C)NC(=O)[C@H](CC(C)C)NC(=O)[C@H](CC(N)=O)NC(=O)[C@@H]4CCCN4C(=O)[C@H](CCCNC(=N)N)NC(=O)[C@H](CSSC[C@H](NC(=O)[C@@H](N)CC(=O)O)C(=O)N[C@@H](CC(C)C)C(=O)NCC(=O)N[C@@H](Cc4ccccc4)C(=O)N[C@@H](CCSC)C(=O)N[C@@H](CCCNC(=N)N)C(=O)N[C@@H](CCCCN)C(=O)N2)NC(=O)[C@H](CSSC[C@@H](C(=O)N[C@@H](CCCCN)C(=O)N[C@@H](Cc2cccc4ccccc24)C(=O)N[C@H](C(=O)N[C@@H](Cc2ccccc2)C(N)=O)C(C)C)NC(=O)[C@H](Cc2c[nH]c4ccccc24)NC(=O)[C@H](CCCNC(=N)N)NC(=O)[C@H](Cc2c[nH]cn2)NC(=O)[C@H]([C@@H](C)O)NC(=O)[C@H](CCCNC(=N)N)NC(=O)[C@H](CO)NC3=O)NC(=O)[C@H](CCCCN)NC(=O)[C@H](CC(=O)O)NC(=O)[C@H](CC(N)=O)NC(=O)[C@H](CC(=O)O)NC(=O)[C@@H]2CCCN2C1=O` [compound 251] (H-DCLGFMRKCIPDNDKCCRPNLVCSRTHRWCK[1Nal]VF-NH2; disulfide 2-17, 9-23, 16-30) the IC50 (hNav1.3; use-dependent block, hNav1.3) was 2 nM, the IC50 (hNav1.5; [4]) was 2.56 µM and the IC50 (hNav1.7; [5]) was 5 nM.

`CC[C@H](C)[C@@H]1NC(=O)[C@@H]2CSSC[C@@H]3NC(=O)[C@H](C(C)C)NC(=O)[C@H](CC(C)C)NC(=O)[C@H](CC(N)=O)NC(=O)[C@@H]4CCCN4C(=O)[C@H](CCCNC(=N)N)NC(=O)[C@H](CSSC[C@H](NC(=O)[C@@H](N)CC(=O)O)C(=O)N[C@@H](CC(C)C)C(=O)NCC(=O)N(C)CC(=O)N[C@@H](CC(C)C)C(=O)N[C@@H](CCCNC(=N)N)C(=O)N[C@@H](CCCCN)C(=O)N2)NC(=O)[C@H](CSSC[C@@H](C(=O)N[C@@H](CCCCN)C(=O)N[C@@H](Cc2ccc(O)cc2)C(=O)N[C@H](C(=O)N[C@@H](Cc2ccccc2)C(N)=O)C(C)C)NC(=O)[C@H](Cc2c[nH]c4ccccc24)NC(=O)[C@H](CCCCN)NC(=O)[C@H](Cc2c[nH]cn2)NC(=O)[C@H]([C@@H](C)O)NC(=O)[C@H](CCCNC(=N)N)NC(=O)[C@H](CO)NC3=O)NC(=O)[C@H](CCCCN)NC(=O)[C@H](CC(=O)O)NC(=O)[C@H](CC(N)=O)NC(=O)[C@H](CC(=O)O)NC(=O)[C@@H]2CCCN2C1=O` [compound 646] was tested, and the IC50 (hNav1.3; [1]) was 1700 nM, the IC50 (hNav1.5; [2]) was over 5 µM and the IC50 (hNav1.7; [3]) was 920 nM.

In the case of `CC[C@H](C)[C@@H]1NC(=O)[C@@H]2CSSC[C@@H]3NC(=O)[C@H](C(C)C)NC(=O)[C@H](CC(C)C)NC(=O)[C@H](CC(N)=O)NC(=O)[C@@H]4CCCN4C(=O)[C@H](CCCNC(=N)N)NC(=O)[C@H](CSSC[C@H](NC(=O)[C@@H](N)CC(=O)O)C(=O)N[C@@H](CC(C)C)C(=O)NCC(=O)N[C@@H](Cc4c[nH]c5ccccc45)C(=O)N[C@@H](CCSC)C(=O)N[C@@H](CCCNC(=N)N)C(=O)N[C@@H](CCCCN)C(=O)N2)NC(=O)[C@H](CSSC[C@@H](C(=O)N[C@@H](CCCCN)C(=O)N[C@@H](Cc2ccc(O)cc2)C(=O)N[C@H](C(=O)N[C@@H](Cc2ccccc2)C(N)=O)C(C)C)NC(=O)[C@H](Cc2c[nH]c4ccccc24)NC(=O)[C@H](CCCCN)NC(=O)[C@H](Cc2cnc[nH]2)NC(=O)[C@H]([C@@H](C)O)NC(=O)[C@H](CCCNC(=N)N)NC(=O)[C@H](CO)NC3=O)NC(=O)[C@H](CCCCN)NC(=O)[C@H](CC(=O)O)NC(=O)[C@H](CC(N)=O)NC(=O)[C@H](CC(=O)O)NC(=O)[C@@H]2CCCN2C1=O` [SEQ ID NO: 82] (H-DCLGWMRKCIPDNDKCCRPNLVCSRTHKWCKYVF-NH2; disulfide 2-17, 9-23, 16-30), the IC50 (hNav1.3; clamped to −110 mV, depolarized to −10 mV, 5 min after compound, n=2) is reported as 110 nM, the IC50 (hNav1.5; IonWorks Quattro, clamped to −110 mV, depolarized to −10 mV, 5 min after compound, n=2, read-out: IWQ Use Nav1.5) is reported as 9.32 µM and the IC50 (hNav1.7; IonWorks Quattro, clamped to −110 mV, depolarized to −10 mV, 5 min after compound, n=2, read-out: IWQ Use Nav1.7) is reported as 150 nM.

With `CC[C@H](C)[C@@H]1NC(=O)[C@@H]2CSSC[C@@H]3NC(=O)[C@H](C(C)C)NC(=O)[C@H](CC(C)C)NC(=O)[C@H](CC(N)=O)NC(=O)[C@@H]4CCCN4C(=O)[C@H](CCCNC(=N)N)NC(=O)[C@H](CSSC[C@H](NC(=O)[C@@H](N)CC(=O)O)C(=O)N[C@@H](CC(C)C)C(=O)NCC(=O)N[C@@H](Cc4ccccc4)C(=O)N[C@@H](CCSC)C(=O)N[C@@H](CCCNC(=N)N)C(=O)N[C@@H](CCCCN)C(=O)N2)NC(=O)[C@H](CSSC[C@@H](C(=O)N[C@@H](C)C(=O)N[C@@H](Cc2ccc(O)cc2)C(=O)N[C@H](C(=O)N[C@@H](Cc2ccccc2)C(N)=O)C(C)C)NC(=O)[C@H](Cc2c[nH]c4ccccc24)NC(=O)[C@H](CCCCN)NC(=O)[C@H](Cc2cnc[nH]2)NC(=O)[C@H]([C@@H](C)O)NC(=O)[C@H](CCCNC(=N)N)NC(=O)[C@H](CO)NC3=O)NC(=O)[C@H](CCCCN)NC(=O)[C@H](CC(=O)O)NC(=O)[C@H](CC(N)=O)NC(=O)[C@H](CC(=O)O)NC(=O)[C@@H]2CCCN2C1=O` [compound 13] (H-DCLGFMRKCIPDNDKCCRPNLVCSRTHKWCAYVF-NH2; disulfide 2-17, 9-23, 16-30) the IC50 (hNav1.3; Table 25, use, […]) was 7390 nM, the IC50 (hNav1.5; IWQ Use Nav1.5 (μM)) was 14.5 µM and the IC50 (hNav1.7) was 7940 nM.

`CC[C@H](C)[C@@H]1NC(=O)[C@@H]2CSSC[C@@H]3NC(=O)[C@H](C(C)C)NC(=O)[C@H](CC(C)C)NC(=O)[C@H](CC(N)=O)NC(=O)[C@@H]4CCCN4C(=O)[C@H](CCCNC(=N)N)NC(=O)[C@H](CSSC[C@H](NC(=O)[C@@H](N)CC(=O)O)C(=O)N[C@@H](CC(C)C)C(=O)NCC(=O)N[C@@H](C)C(=O)N[C@@H](CC(C)C)C(=O)N[C@@H](CCCNC(=N)N)C(=O)N[C@@H](CCCCN)C(=O)N2)NC(=O)[C@H](CSSC[C@@H](C(=O)N[C@@H](CCCCN)C(=O)N[C@@H](Cc2ccc(O)cc2)C(=O)N[C@H](C(=O)N[C@@H](Cc2ccccc2)C(=O)N[C@@H](Cc2c[nH]c4ccccc24)C(=O)O)C(C)C)NC(=O)[C@H](Cc2c[nH]c4ccccc24)NC(=O)[C@H](CCCNC(=N)N)NC(=O)[C@H](Cc2c[nH]cn2)NC(=O)[C@H]([C@@H](C)O)NC(=O)[C@H](CCCNC(=N)N)NC(=O)[C@H](CO)NC3=O)NC(=O)[C@H](CCCCN)NC(=O)[C@H](CC(=O)O)NC(=O)[C@H](CC(N)=O)NC(=O)[C@H](CC(=O)O)NC(=O)[C@@H]2CCCN2C1=O` [compound 814] (H-DCLGALRKCIPDNDKCCRPNLVCSRTHRWCKYVFW-OH; disulfide 2-17, 9-23, 16-30) was tested, and the IC50 (hNav1.3; use-dependent block, hNav1.3) was 600 nM, the IC50 (hNav1.5; [4]) was over 5 µM and the IC50 (hNav1.7; [5]) was 600 nM.

`CC[C@H](C)[C@@H]1NC(=O)[C@@H]2CSSC[C@@H]3NC(=O)[C@H](C(C)C)NC(=O)[C@H](CC(C)C)NC(=O)[C@H](CC(N)=O)NC(=O)[C@@H]4CCCN4C(=O)[C@H](CCCNC(=N)N)NC(=O)[C@H](CSSC[C@H](NC(=O)[C@@H](N)CC(=O)O)C(=O)N[C@@H](CC(C)C)C(=O)NCC(=O)N[C@@H](Cc4ccccc4)C(=O)N[C@@H](CCSC)C(=O)N[C@@H](CCCNC(=N)N)C(=O)N[C@@H](CCCCN)C(=O)N2)NC(=O)[C@H](CSSC[C@@H](C(=O)N[C@@H](CCCCN)C(=O)N[C@@H](Cc2ccc(O)cc2)C(=O)N[C@H](C(=O)N[C@@H](CC2CCCCC2)C(N)=O)C(C)C)NC(=O)[C@H](Cc2c[nH]c4ccccc24)NC(=O)[C@H](CCCCN)NC(=O)[C@H](Cc2c[nH]cn2)NC(=O)[C@H]([C@@H](C)O)NC(=O)[C@H](CCCNC(=N)N)NC(=O)[C@H](CO)NC3=O)NC(=O)[C@H](CCCCN)NC(=O)[C@H](CC(=O)O)NC(=O)[C@H](CC(N)=O)NC(=O)[C@H](CC(=O)O)NC(=O)[C@@H]2CCCN2C1=O` [compound 405] (H-DCLGFMRKCIPDNDKCCRPNLVCSRTHKWCKYV[Cha]-NH2; disulfide 2-17, 9-23, 16-30) showed an IC50 (hNav1.3; use-dependent, […]) of 10 nM, an IC50 (hNav1.5; IonWorks Quattro, use-dependent, […], read-out: IWQ Use Nav1.5) of 5.53 µM and an IC50 (hNav1.7; IonWorks Quattro, use-dependent, […], read-out: IWQ Use Nav1.7) of 20 nM.
